Assay results published in patent publication US11046686B2, “Thiadiazole IRAK4 compounds” (Gilead Sciences, Inc., priority 2018, dated 2021).

These molecules were tested on TNFα (assay: IRAK4 Monocyte TNFα Cell Based Assay). Conditions: Homo sapiens, Monocyte, human monocytes; second part of Table 2, compounds 33-343; unit inferred; read-out: EC50 MONO TNF HTRF.
Parameters: species or system human
Procedure: IRAK4 Monocyte TNFα Cell Based Assay Procedure:
The cell suspension was then plated at a density of 5,000 cells/well onto black 384 well Greiner clear bottom plates. Plates were pre-spotted with test compounds and serially diluted in DMSO where 40 nL/well were delivered using the Echo 550 acoustic liquid dispenser (Labcyte®) for a final DMSO concentration of 0.1%. Plated cells were treated with compound for 1 hour at 37° C. Cells were then stimulated with 50 pg/ml of LPS (Sigma) excluding outside columns of plate used for unstimulated cell control wells. Cells were incubated for an additional 4 hours at 37° C. Cells were then spun out of the media and 5 μl of sample were taken and analyzed for total TNFα content using the TR-FRET Human TNFα detection system (CisBio). This system utilizes two labeled antibodies (cryptate and XL665) that bind to two different epitopes of the TNFα molecule and produce FRET signal proportional to the concentration of TNFα in the sample. Detection antibodies are mixed 50:50 and 5 μL were dispensed into each well. Plates were covered with clear seals and incubated at room temp overnight. […] Percent of control was calculated as follows: % Control=100×(Ratiosample−Ratio0% stimulation)/(Ratio100% Stimulation−Ratio0% Stimulation) where unstimulated cells (0% stimulation) were the negative control and stimulated cells (100% stimulation) were used as the positive control.

Row | EC50 [nM] | SMILES
1 | 27.1 | CC(C)Nc1cc(-c2ccc3cc(C#N)cnn23)ncc1-c1nnc([C@@H]2CC[C@H]2C(C)(C)O)s1 (racemic) [Example 88, 7-(5-(5-((1,2-trans)-2-(2-hydroxypropan-2-yl)cyclobutyl)-1,3,4-thiadiazol-2-yl)-4-(isopropylamino)pyridin-2-yl)pyrrolo[1,2-b]pyridazine-3-carbonitrile]

Same assay, conditions: Homo sapiens, Monocyte, read-out: EC50 MONO TNF HTRF

Row | SMILES | EC50 [nM]
2 | CC1(Nc2cc(-c3ccc4cc(C#N)cnn34)ncc2-c2nnc(N3CC4CC(C3)N4C(=O)C(C)(C)O)s2)COC1 [Example 112, 7-(5-(5-(6-(2-hydroxy-2-methylpropanoyl)-3,6-diazabicyclo[3.1.1]heptan-3-yl)-1,3,4-thiadiazol-2-yl)-4-((3-methyloxetan-3-yl)amino)pyridin-2-yl)pyrrolo[1,2-b]pyridazine-3-carbonitrile] | 13.1

Same assay, conditions: human monocytes; second part of Table 2, compounds 33-343; unit inferred; read-out: EC50 MONO TNF HTRF

Row | EC50 [nM] | SMILES
3 | 4.9 | CC(C)Nc1cc(-c2ccc3cc(C#N)cnn23)ncc1-c1nnc(N2C[C@H]3CC[C@@H](C2)[C@@H]3N2CCOC2=O)s1 [Example 301, 7-(4-(isopropylamino)-5-(5-((1R,5S,8s)-8-(2-oxooxazolidin-3-yl)-3-azabicyclo[3.2.1]octan-3-yl)-1,3,4-thiadiazol-2-yl)pyridin-2-yl)pyrrolo[1,2-b]pyridazine-3-carbonitrile]
4 | 5.1 | CC(=O)N[C@H]1CC[C@H](c2nnc(-c3cnc(-c4ccc5cc(C#N)cnn45)cc3NC3CCOCC3)s2)CC1 [Compound 255, N-((1r,4r)-4-(5-(6-(3-cyanopyrrolo[1,2-b]pyridazin-7-yl)-4-((tetrahydro-2H-pyran-4-yl)amino)pyridin-3-yl)-1,3,4-thiadiazol-2-yl)cyclohexyl)acetamide]
5 | 2.4 | CC(=O)N[C@@H]1[C@@H]2CC[C@H]1CN(c1nnc(-c3cnc(-c4ccc5cc(C#N)cnn45)cc3NC3COC3)s1)C2 [Example 184]
6 | 18.1 | CC(C)Nc1cc(-c2ccc3cc(C#N)cnn23)ncc1-c1nnc(C(=O)N2CC[C@@H](CO)C2)s1 [Example 216]
7 | 7.4 | CC(=O)N[C@]1(C)[C@@H]2CC[C@H]1CN(c1nnc(-c3cnc(-c4ccc5cc(C#N)cnn45)cc3NC(C)C)s1)C2 [Example 155]
8 | 19.8 | CC1(Nc2cc(-c3ccc4cc(C#N)cnn34)ncc2-c2nnc([C@H]3CC[C@H](NC(=O)C4CC4)CC3)s2)COC1 [Example 158, N-((1r,4r)-4-(5-(6-(3-cyanopyrrolo[1,2-b]pyridazin-7-yl)-4-((3-methyloxetan-3-yl)amino)pyridin-3-yl)-1,3,4-thiadiazol-2-yl)cyclohexyl)cyclopropanecarboxamide]
9 | 14.4 | CC(=O)NC1CCC(c2nnc(-c3cnc(-c4ccc5cc(C#N)cnn45)cc3NC3CCC(c4cnn(C(F)F)c4)CC3)s2)CC1 [Example 227, N-((1R,4r)-4-(5-(6-(3-cyanopyrrolo[1,2-b]pyridazin-7-yl)-4-(((1r,4R)-4-(1-(difluoromethyl)-1H-pyrazol-4-yl)cyclohexyl)amino)pyridin-3-yl)-1,3,4-thiadiazol-2-yl)cyclohexyl)acetamide]
10 | 14.7 | COC(=O)N[C@@H]1[C@@H]2CC[C@H]1CN(c1nnc(-c3cnc(-c4ccc5cc(C#N)cnn45)cc3NC(C)C)s1)C2 [Example 59, methyl ((1R,5S,8s)-3-(5-(6-(3-cyanopyrrolo[1,2-b]pyridazin-7-yl)-4-(isopropylamino)pyridin-3-yl)-1,3,4-thiadiazol-2-yl)-3-azabicyclo[3.2.1]octan-8-yl)carbamate]
11 | 15 | CC(C)Nc1cc(-c2ccc3cc(C#N)cnn23)ncc1-c1nnc(C2CCN(C3COC3)CC2)s1 [Example 138]
12 | 1000 | CC(C)Nc1cc(-c2ccc3cc(C#N)cnn23)ncc1-c1nnc(-n2cccn2)s1 [Compound 325]
13 | 3100 | CC(C)Nc1cc(-c2ccc3cc(C#N)cnn23)ncc1-c1nnc(C(=O)N[C@H]2C[C@@H](O)C2)s1 [Example 215, 5-(6-(3-cyanopyrrolo[1,2-b]pyridazin-7-yl)-4-(isopropylamino)pyridin-3-yl)-N-((1s,3s)-3-hydroxycyclobutyl)-1,3,4-thiadiazole-2-carboxamide]
14 | 10000 | CC(=O)N[C@H]1C[C@H](c2nnc(-c3cnc(-c4ccc5cc(C#N)cnn45)cc3NC(C)C)s2)C1 [Compound 278, N-((1r,3r)-3-(5-(6-(3-cyanopyrrolo[1,2-b]pyridazin-7-yl)-4-(isopropylamino)pyridin-3-yl)-1,3,4-thiadiazol-2-yl)cyclobutyl)acetamide]
15 | 8.5 | CC(C)Nc1cc(-c2ccc3cc(C#N)cnn23)ncc1-c1nnc(N2C[C@H]3CC[C@@H](C2)[C@@H]3N)s1 [Example 60, 7-(5-(5-((1R,5S,8s)-8-amino-3-azabicyclo[3.2.1]octan-3-yl)-1,3,4-thiadiazol-2-yl)-4-(isopropylamino)pyridin-2-yl)pyrrolo[1,2-b]pyridazine-3-carbonitrile]
16 | 48.9 | CC(C)(O)C(=O)NC12CCC(c3nnc(-c4cnc(-c5ccc6cc(C#N)cnn56)cc4NC4COC4)s3)(C1)C2 [Compound 335]
17 | 2.3 | CC(=O)N[C@@H]1[C@@H]2CCC[C@H]1CN(c1nnc(-c3cnc(-c4ccc5cc(C#N)cnn45)cc3NC(C)C)s1)C2 [Example 166, N-((1R,5S,9s)-3-(5-(6-(3-cyanopyrrolo[1,2-b]pyridazin-7-yl)-4-(isopropylamino)pyridin-3-yl)-1,3,4-thiadiazol-2-yl)-3-azabicyclo[3.3.1]nonan-9-yl)acetamide]
18 | 10.9 | CC(C)Nc1cc(-c2ccc3cc(C#N)cnn23)ncc1-c1nnc([C@H]2CC[C@H](NC(=O)C(C)(C)O)CC2)s1 [Example 315, N-((1r,4r)-4-(5-(6-(3-cyanopyrrolo[1,2-b]pyridazin-7-yl)-4-(isopropylamino)pyridin-3-yl)-1,3,4-thiadiazol-2-yl)cyclohexyl)-2-hydroxy-2-methylpropanamide]
19 | 98.9 | CC(=O)NC12CCC(c3nnc(-c4cnc(-c5ccc6cc(C#N)cnn56)cc4NC4COC4)s3)(C1)C2 [Compound 334]
20 | 5.2 | CC(C)Nc1cc(-c2ccc3cc(C#N)cnn23)ncc1-c1nnc(N2C[C@H]3CC[C@@H](C2)[C@@H]3NC(=O)C2CC2)s1 [Example 150, N-((1R,5S,8s)-3-(5-(6-(3-cyanopyrrolo[1,2-b]pyridazin-7-yl)-4-(isopropylamino)pyridin-3-yl)-1,3,4-thiadiazol-2-yl)-3-azabicyclo[3.2.1]octan-8-yl)cyclopropanecarboxamide]
21 | 18.3 | CC(=O)N1CC2CC(C1)N2c1nnc(-c2cnc(-c3ccc4cc(C#N)cnn34)cc2NC(C)C)s1 [Compound 261, 7-(5-(5-(3-acety1-3,6-diazabicyclo[3.1.1]heptan-6-yl)-1,3,4-thiadiazol-2-yl)-4-(isopropylamino)pyridin-2-yl)pyrrolo[1,2-b]pyridazine-3-carbonitrile]
22 | 38.3 | CC(C)Nc1cc(-c2ccc3cc(C#N)cnn23)ncc1-c1nnc([C@H]2C[C@@](C)(O)C2)s1 [Example 199, 7-(5-(5-((1s,3s)-3-hydroxy-3-methylcyclobutyl)-1,3,4-thiadiazol-2-yl)-4-(isopropylamino)pyridin-2-yl)pyrrolo[1,2-b]pyridazine-3-carbonitrile]
23 | 2.1 | CC(C)Nc1cc(-c2ccc3cc(C#N)cnn23)ncc1-c1nnc(N2C[C@H]3CC[C@@H](C2)[C@@H]3NC(=O)C2CCN(C)CC2)s1 [Example 100, N-((1R,5S,8s)-3-(5-(6-(3-cyanopyrrolo[1,2-b]pyridazin-7-yl)-4-(isopropylamino)pyridin-3-yl)-1,3,4-thiadiazol-2-yl)-3-azabicyclo[3.2.1]octan-8-yl)-1-methylpiperidine-4-carboxamide]
24 | 1.4 | CC(C)Nc1cc(-c2ccc3cc(C#N)cnn23)ncc1-c1nnc(N2C[C@H]3CC[C@@H](C2)[C@@H]3NC(=O)C(=O)N=S(C)(C)=O)s1 [Example 103, N1-((lR,5S,8s)-3-(5-(6-(3-cyanopyrrolo[1,2-b]pyridazin-7-yl)-4-(isopropylamino)pyridin-3-yl)-1,3,4-thiadiazol-2-yl)-3-azabicyclo[3.2.1]octan-8-yl)-N2-(dimethyl(oxo)-16-sulfanylidene)oxalamide]
25 | 114 | CC(C)Nc1cc(-c2ccc3cc(C#N)cnn23)ncc1-c1nnc(C(C)(C)O)s1 [Example 80, 7-(5-(5-(2-hydroxypropan-2-yl)-1,3,4-thiadiazol-2-yl)-4-(isopropylamino)pyridin-2-yl)pyrro1o[1,2-b]pyridazine-3-carbonitrile]
26 | 2.3 | CC(=O)N[C@@H]1[C@@H]2CC[C@H]1CN(c1nnc(-c3cnc(-c4ccc5cc(C#N)cnn45)cc3NC3(C)COC3)s1)C2 [Example 144, N-((1R,5S,8s)-3-(5-(6-(3-cyanopyrrolo[1,2-b]pyridazin-7-yl)-4-((3-methyloxetan-3-yl)amino)pyridin-3-yl)-1,3,4-thiadiazo1-2-yl)-3-azabicyclo[3.2.1]octan-8-yl)acetamide]
27 | 1000 | CC(C)Nc1cc(-c2ccc3cc(C#N)cnn23)ncc1-c1nnc(C2CCC(C#N)CC2)s1 (stereo not shown) [Compound 333]
28 | 4.2 | COC(=O)N1CCN(C(=O)N[C@@H]2[C@@H]3CC[C@H]2CN(c2nnc(-c4cnc(-c5ccc6cc(C#N)cnn56)cc4NC(C)C)s2)C3)CC1 [Example 105, methyl 4-(((1R,5S,8s)-3-(5-(6-(3-cyanopyrrolo[1,2-b]pyridazin-7-yl)-4-(isopropylamino)pyridin-3-yl)-1,3,4-thiadiazol-2-yl)-3-azabicyclo[3.2.1]octan-8-yl)carbamoyl)piperazine-1-carboxylate]
